Test results published in publication PMC5933747 (PLoS ONE, 2018).

Assays:
Type in all cases: cell-based
human NaV1.7 = human NaV1.7 (Homo sapiens, UniProt Q15858); assay: PatchXpress (PX) automated electrophysiology, human NaV1.7 in HEK293 cells; details: PX platform, voltage protocol with 20% of channels inactivated, at least ten cells, two to three data points per concentration
human NaV1.5 = human NaV1.5 (Homo sapiens, UniProt Q14524); assay: PatchXpress (PX) automated electrophysiology, human NaV1.5; details: human; PX platform; at least ten cells, two to three data points per concentration
human NaV1.5, sequence (Q14524 whole entry): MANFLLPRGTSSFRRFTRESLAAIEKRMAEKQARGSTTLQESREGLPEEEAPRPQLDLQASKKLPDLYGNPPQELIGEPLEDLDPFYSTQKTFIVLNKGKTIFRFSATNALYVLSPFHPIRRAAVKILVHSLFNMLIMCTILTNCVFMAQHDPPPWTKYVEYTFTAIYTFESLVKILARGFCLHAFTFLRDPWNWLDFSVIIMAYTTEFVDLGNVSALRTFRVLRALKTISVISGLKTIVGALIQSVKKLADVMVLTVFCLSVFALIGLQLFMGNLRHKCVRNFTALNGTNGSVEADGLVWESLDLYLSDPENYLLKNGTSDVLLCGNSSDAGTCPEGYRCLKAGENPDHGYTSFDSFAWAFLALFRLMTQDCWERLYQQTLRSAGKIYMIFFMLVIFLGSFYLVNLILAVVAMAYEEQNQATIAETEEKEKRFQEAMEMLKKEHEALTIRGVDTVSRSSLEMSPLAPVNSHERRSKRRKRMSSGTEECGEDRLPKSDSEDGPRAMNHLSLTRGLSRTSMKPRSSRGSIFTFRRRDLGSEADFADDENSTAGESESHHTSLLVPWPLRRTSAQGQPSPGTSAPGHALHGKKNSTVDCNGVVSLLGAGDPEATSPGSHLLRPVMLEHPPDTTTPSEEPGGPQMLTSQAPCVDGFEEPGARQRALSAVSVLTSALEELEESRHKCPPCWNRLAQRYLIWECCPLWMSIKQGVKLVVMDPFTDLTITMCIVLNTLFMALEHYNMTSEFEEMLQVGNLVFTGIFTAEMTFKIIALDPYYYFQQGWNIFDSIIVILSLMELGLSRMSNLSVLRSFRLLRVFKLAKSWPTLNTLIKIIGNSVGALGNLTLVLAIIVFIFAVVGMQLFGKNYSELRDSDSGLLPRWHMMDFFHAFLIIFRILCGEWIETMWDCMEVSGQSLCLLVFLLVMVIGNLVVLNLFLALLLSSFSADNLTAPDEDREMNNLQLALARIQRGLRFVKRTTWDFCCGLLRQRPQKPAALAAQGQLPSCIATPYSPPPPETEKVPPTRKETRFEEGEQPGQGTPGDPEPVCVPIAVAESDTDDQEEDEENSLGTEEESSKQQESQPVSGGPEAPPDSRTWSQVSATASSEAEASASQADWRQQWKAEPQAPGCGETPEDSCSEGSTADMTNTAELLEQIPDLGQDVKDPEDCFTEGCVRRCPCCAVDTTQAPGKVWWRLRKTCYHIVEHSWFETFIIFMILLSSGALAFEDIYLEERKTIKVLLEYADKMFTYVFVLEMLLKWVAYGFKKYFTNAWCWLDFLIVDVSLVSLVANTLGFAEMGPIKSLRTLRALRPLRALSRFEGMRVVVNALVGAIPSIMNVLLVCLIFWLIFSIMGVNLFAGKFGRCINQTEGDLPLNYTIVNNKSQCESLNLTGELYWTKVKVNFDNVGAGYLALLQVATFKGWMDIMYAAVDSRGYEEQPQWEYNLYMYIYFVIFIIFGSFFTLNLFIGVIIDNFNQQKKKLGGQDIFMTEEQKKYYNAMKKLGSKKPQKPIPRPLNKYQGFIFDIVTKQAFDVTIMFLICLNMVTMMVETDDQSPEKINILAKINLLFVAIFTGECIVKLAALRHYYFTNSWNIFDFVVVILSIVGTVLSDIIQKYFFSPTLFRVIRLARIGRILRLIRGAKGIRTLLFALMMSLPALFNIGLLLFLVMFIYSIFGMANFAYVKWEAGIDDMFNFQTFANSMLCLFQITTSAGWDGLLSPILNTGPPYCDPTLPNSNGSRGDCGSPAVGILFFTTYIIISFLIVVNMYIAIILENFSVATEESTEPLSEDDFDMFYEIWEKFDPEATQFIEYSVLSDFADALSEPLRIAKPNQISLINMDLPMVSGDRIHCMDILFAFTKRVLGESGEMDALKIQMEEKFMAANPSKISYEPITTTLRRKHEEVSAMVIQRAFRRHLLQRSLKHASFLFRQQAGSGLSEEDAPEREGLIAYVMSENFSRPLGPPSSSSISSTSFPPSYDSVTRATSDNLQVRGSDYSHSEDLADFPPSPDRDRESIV

human NaV1.4 = human NaV1.4 (Homo sapiens, UniProt P35499); assay: PatchXpress (PX) automated electrophysiology, human NaV1.4
human NaV1.4, sequence (P35499 whole entry): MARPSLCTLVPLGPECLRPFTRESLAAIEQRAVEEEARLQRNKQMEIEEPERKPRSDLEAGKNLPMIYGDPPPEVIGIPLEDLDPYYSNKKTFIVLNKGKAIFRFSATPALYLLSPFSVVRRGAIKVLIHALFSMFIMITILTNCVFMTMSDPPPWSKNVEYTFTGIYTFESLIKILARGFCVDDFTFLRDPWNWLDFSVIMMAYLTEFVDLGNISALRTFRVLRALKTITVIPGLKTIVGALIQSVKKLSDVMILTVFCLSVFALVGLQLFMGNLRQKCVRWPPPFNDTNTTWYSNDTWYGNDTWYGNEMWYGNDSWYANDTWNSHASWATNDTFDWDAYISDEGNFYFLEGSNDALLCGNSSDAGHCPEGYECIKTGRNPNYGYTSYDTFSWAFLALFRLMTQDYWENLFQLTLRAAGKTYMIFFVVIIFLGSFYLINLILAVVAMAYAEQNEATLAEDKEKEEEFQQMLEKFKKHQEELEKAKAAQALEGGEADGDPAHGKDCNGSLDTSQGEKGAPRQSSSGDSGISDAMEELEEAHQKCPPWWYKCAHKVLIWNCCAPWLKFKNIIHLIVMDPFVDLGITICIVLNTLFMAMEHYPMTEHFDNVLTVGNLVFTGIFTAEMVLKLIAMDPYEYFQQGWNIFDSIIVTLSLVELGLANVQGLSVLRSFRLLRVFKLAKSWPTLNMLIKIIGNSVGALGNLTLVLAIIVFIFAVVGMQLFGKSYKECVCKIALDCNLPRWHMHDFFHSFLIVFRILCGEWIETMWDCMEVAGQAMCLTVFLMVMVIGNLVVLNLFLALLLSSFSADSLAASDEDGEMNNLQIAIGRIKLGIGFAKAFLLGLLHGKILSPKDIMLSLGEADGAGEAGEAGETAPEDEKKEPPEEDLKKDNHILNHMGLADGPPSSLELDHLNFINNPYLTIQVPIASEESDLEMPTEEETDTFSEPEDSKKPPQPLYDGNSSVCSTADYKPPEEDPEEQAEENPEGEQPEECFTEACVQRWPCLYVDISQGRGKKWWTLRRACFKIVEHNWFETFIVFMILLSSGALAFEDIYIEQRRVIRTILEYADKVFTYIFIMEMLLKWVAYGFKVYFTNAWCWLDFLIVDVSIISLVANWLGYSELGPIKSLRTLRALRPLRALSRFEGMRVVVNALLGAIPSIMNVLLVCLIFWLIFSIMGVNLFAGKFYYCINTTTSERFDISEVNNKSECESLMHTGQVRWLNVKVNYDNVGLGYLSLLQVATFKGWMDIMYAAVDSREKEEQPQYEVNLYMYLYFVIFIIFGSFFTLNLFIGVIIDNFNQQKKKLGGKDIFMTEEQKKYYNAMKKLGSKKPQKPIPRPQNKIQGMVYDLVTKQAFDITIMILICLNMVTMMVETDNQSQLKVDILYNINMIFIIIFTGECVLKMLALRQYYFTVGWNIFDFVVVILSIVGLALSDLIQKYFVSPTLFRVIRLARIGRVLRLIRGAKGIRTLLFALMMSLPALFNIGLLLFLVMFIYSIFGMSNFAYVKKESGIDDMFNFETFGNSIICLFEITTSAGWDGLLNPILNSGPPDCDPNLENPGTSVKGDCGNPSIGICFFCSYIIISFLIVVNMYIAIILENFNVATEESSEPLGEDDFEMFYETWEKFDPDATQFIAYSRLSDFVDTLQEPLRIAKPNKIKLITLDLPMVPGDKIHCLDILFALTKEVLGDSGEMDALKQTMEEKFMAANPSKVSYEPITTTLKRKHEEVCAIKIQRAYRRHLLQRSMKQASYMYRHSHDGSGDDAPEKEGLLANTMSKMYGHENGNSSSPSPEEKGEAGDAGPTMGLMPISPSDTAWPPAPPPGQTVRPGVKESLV
Procedure: Human NaV (hNaV) stably transfected cell lines in HEK293 or CHO backgrounds and cell culture methods were as previously described. hNaV1.1-hNaV1.7 cells were obtained from Eurofins Pharma Discovery Services (St. Charles, MO), and hNaV1.8 cells were generated in house. Whole cell patch clamp, PatchXpress, and IWQ electrophysiology voltage protocols as well as DRG neuron isolation were carried out as previously described. NaV1.7-NaV1.5 chimeras were generated and evaluated in BacMam transduced U2-OS cells on the IWQ platform as previously described.

C#CC[C@H](N)C(=O)N[C@@H](Cc1ccc(O)cc1)C(=O)N[C@H]1CSSC[C@@H]2NC(=O)[C@@H]3CSSC[C@@H](C(=O)N[C@@H](CCCNC(=N)N)C(=O)N[C@@H](CCCCN)C(=O)N[C@H](C(=O)N[C@H](C(N)=O)[C@@H](C)CC)[C@@H](C)CC)NC(=O)[C@H](Cc4c[nH]c5ccccc45)NC(=O)[C@H](CC(C)C)NC(=O)[C@H](CCCCN)NC(=O)[C@H](CSSC[C@H](NC(=O)[C@H]([C@@H](C)O)NC(=O)[C@H](Cc4c[nH]c5ccccc45)NC(=O)[C@H](CCCC)NC(=O)[C@H](Cc4c[nH]c5ccccc45)NC(=O)[C@H](CCCCN)NC(=O)[C@H](CCC(N)=O)NC1=O)C(=O)N[C@@H](CC(=O)O)C(=O)N[C@@H](CO)C(=O)N[C@@H](CCCCN)C(=O)N[C@@H](CCCNC(=N)N)C(=O)N[C@@H](C)C(=O)N3)NC(=O)[C@H](CCCNC(=N)N)NC(=O)[C@H](CC(C)C)NC(=O)CNC(=O)[C@H](CCC(=O)O)NC2=O [Peptide 3, Pra-[Nle6]JzTx-V(1–29)]
IC50 (human NaV1.7): 1.2 nM | IC50 (human NaV1.5): 1090 nM | selectivity for NaV1.7 over NaV1.4 (human NaV1.4; PX platform IC50 ratio): 5 fold | IC50 (human NaV1.4; PX platform, at least ten cells, two to three data points per concentration): 6.2 nM
